{"source": "patent US20020156236A1", "about": "“Binding sites for phosphotyrosine binding domains” (priority 1995, published 2002)", "note": "Where a SMILES comes first, the peptide text is derived from it."}
{"molecular_target": "T1, PTB domain/c-erbB2 binding (GST-PTB domain of SHC; c-erbB2 from SKBR3 lysate) (Homo sapiens, UniProt P29353)", "T1 construct": "GST-PTB domain fusion proteins were expressed from recombinant baculovirus in sf9 cells; made in house; host or cells: Sf9 cells (recombinant baculovirus) for GST-PTB; c-erbB2 endogenous in SKBR3 cell lysate", "T1 sequence (P29353 156-341)": "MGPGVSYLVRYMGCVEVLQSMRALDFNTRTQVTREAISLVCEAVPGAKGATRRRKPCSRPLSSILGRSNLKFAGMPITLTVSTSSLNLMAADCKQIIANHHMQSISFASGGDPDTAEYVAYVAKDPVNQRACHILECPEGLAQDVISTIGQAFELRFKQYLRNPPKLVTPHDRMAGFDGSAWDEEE", "test": "biochemical", "details": "Inhibition (relative inhibition scale of IC50)", "units": {"IC50": "µM"}}
{"smiles": "CC(C)C[C@H](NC(=O)[C@H](CC(N)=O)NC(=O)[C@H](CC(=O)O)NC(=O)[C@H](Cc1ccccc1)NC(=O)[C@H](C)NC(=O)[C@@H]1CCCN1C(=O)[C@H](CO)NC(=O)[C@H](Cc1ccccc1)NC(=O)[C@H](C)NC(=O)[C@@H]1CCCN1)C(=O)N[C@@H](Cc1ccccc1)C(=O)N[C@@H](Cc1ccc(O)cc1)C(=O)N[C@@H](Cc1ccc(OP(=O)(O)O)cc1)C(=O)N[C@@H](Cc1c[nH]c2ccccc12)C(=O)N[C@@H](CC(=O)O)C(=O)N[C@@H](CCC(N)=O)C(=O)N[C@@H](CC(N)=O)C(=O)N[C@@H](CO)C(=O)N[C@@H](CO)C(=O)N[C@@H](CCC(=O)O)C(=O)N[C@@H](CCC(N)=O)C(=O)NCC(=O)O", "note": "[PAFSPAFDNLFY (pY) WDQNSSEQG] (HELM PEPTIDE1{P.A.F.S.P.A.F.D.N.L.F.Y.[O=C([C@H](Cc1ccc(OP(=O)(O)O)cc1)N[*:1])[*:2]].W.D.Q.N.S.S.E.Q.G}$$$$V2.0)", "IC50": "0.5 to 5"}
{"smiles": "CC(C)C[C@H](NC(=O)[C@H](CC(N)=O)NC(=O)[C@H](CC(=O)O)NC(=O)[C@H](Cc1ccccc1)NC(=O)[C@H](C)NC(=O)[C@@H]1CCCN1C(=O)[C@H](CO)NC(=O)[C@H](Cc1ccccc1)NC(=O)[C@H](C)NC(=O)[C@@H]1CCCN1)C(=O)N[C@@H](Cc1ccc(O)cc1)C(=O)N[C@@H](Cc1ccc(OP(=O)(O)O)cc1)C(=O)N[C@@H](Cc1ccccc1)C(=O)N[C@@H](CC(=O)O)C(=O)N[C@@H](CCC(N)=O)C(=O)N[C@@H](CC(N)=O)C(=O)N[C@@H](CO)C(=O)N[C@@H](CO)C(=O)N[C@@H](CCC(=O)O)C(=O)N[C@@H](CCC(N)=O)C(=O)NCC(=O)O", "note": "[PAFSPAFDNLY (pY) FDQNSSEQG, PAFSPAFDNLY(pY)FDQNSSEQG] (HELM PEPTIDE1{P.A.F.S.P.A.F.D.N.L.Y.[O=C([C@H](Cc1ccc(OP(=O)(O)O)cc1)N[*:1])[*:2]].F.D.Q.N.S.S.E.Q.G}$$$$V2.0)", "IC50": "0.5 to 5"}
{"smiles": "CC(C)C[C@H](NC(=O)[C@H](CC(N)=O)NC(=O)[C@H](CC(=O)O)NC(=O)[C@H](Cc1ccccc1)NC(=O)[C@H](C)NC(=O)[C@@H]1CCCN1C(=O)[C@H](CO)NC(=O)[C@H](Cc1ccccc1)NC(=O)[C@H](C)NC(=O)[C@@H]1CCCN1)C(=O)N[C@@H](Cc1ccc(O)cc1)C(=O)N[C@@H](Cc1ccc(OP(=O)(O)O)cc1)C(=O)N[C@@H](Cc1c[nH]c2ccccc12)C(=O)N[C@@H](CC(=O)O)C(=O)N[C@@H](CCC(N)=O)C(=O)N[C@@H](C)C(=O)N[C@@H](CO)C(=O)N[C@@H](CO)C(=O)N[C@@H](CCC(=O)O)C(=O)N[C@@H](CCC(N)=O)C(=O)NCC(=O)O", "note": "[PAFSPAFDNLY (pY) WDQASSEQG, PAFSPAFDNLY(pY)WDQASSEQG] (HELM PEPTIDE1{P.A.F.S.P.A.F.D.N.L.Y.[O=C([C@H](Cc1ccc(OP(=O)(O)O)cc1)N[*:1])[*:2]].W.D.Q.A.S.S.E.Q.G}$$$$V2.0)", "IC50": "0.5 to 5"}
{"smiles": "CC(C)C[C@H](NC(=O)[C@H](CCC(N)=O)NC(=O)[C@H](CC(=O)O)NC(=O)[C@H](Cc1ccccc1)NC(=O)[C@H](C)NC(=O)[C@@H]1CCCN1C(=O)[C@H](CO)NC(=O)[C@H](Cc1ccccc1)NC(=O)[C@H](C)NC(=O)[C@@H]1CCCN1)C(=O)N[C@@H](Cc1ccc(O)cc1)C(=O)N[C@@H](Cc1ccc(OP(=O)(O)O)cc1)C(=O)N[C@@H](Cc1c[nH]c2ccccc12)C(=O)N[C@@H](CC(=O)O)C(=O)N[C@@H](CCC(N)=O)C(=O)N[C@@H](CC(N)=O)C(=O)N[C@@H](CO)C(=O)N[C@@H](CO)C(=O)N[C@@H](CCC(=O)O)C(=O)N[C@@H](CCC(N)=O)C(=O)NCC(=O)O", "note": "[PAFSPAFDQLY (pY) WDQNSSEQG] (HELM PEPTIDE1{P.A.F.S.P.A.F.D.Q.L.Y.[O=C([C@H](Cc1ccc(OP(=O)(O)O)cc1)N[*:1])[*:2]].W.D.Q.N.S.S.E.Q.G}$$$$V2.0)", "IC50": "> 50"}
